Test results reported in the supplement of paper PMC10307832.

Experiments:
Assay in all cases: relative viability (nuclei count vs DMSO), 5 days (fraction); higher = more cells survive
[1] = compound: CN1CCC(CC1)OC2=CC(=C(C=C2)NC3=NC=C4C(=N3)N(C(=O)N4C)C5CCCC5)OC [AZ3146] + CC(=O)c1c(C)c2cnc(Nc3ccc(N4CCNCC4)cn3)nc2n(C2CCCC2)c1=O [Palbociclib] (partner 0.5 µM)
In short: (§1)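 Relative viability equals treated-well nuclei counts divided by vehicle-well nuclei counts. Counts came from 4× images of lung cancer cell lines grown in 1536-well plates for 5 days after pin-tool dosing on the day after seeding. Dosing used one drug alone or a fixed anchor-drug dose plus five library-drug doses (not always all listed) in √10 steps, and values are medians of duplicate plates.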

[2] = compound: CCOC(=O)CCNc1cc(N2CCc3ccccc3CC2)nc(-c2ccccn2)n1 [GSK-J4] + CS(=O)(=O)CCNCc1ccc(-c2ccc3ncnc(Nc4ccc(OCc5cccc(F)c5)c(Cl)c4)c3c2)o1 [Lapatinib] (partner 2 µM)
In short: as §1

[3] = compound: CN1CCC(CC1)OC2=CC(=C(C=C2)NC3=NC=C4C(=N3)N(C(=O)N4C)C5CCCC5)OC [AZ3146] + N=C(N)NC(=N)NCCc1ccccc1 [Phenformin] (partner 250 µM)
In short: as §1

[4] = compound: CN1CCC(CC1)OC2=CC(=C(C=C2)NC3=NC=C4C(=N3)N(C(=O)N4C)C5CCCC5)OC [AZ3146] + CCNC(=O)c1noc(-c2cc(C(C)C)c(O)cc2O)c1-c1ccc(CN2CCOCC2)cc1 [Luminespib] (partner 0.01 µM)
In short: as §1

Row | Cell Line | relative viability ([1]; first compound 0.08 µM) | relative viability ([1]; first compound 0.253 µM) | relative viability ([1]; first compound 0.8 µM) | relative viability ([1]; first compound 2.53 µM) | relative viability ([1]; first compound 8 µM) | relative viability ([2]; first compound 0.5 µM) | relative viability ([2]; first compound 1.581 µM) | relative viability ([2]; first compound 5 µM) | relative viability ([2]; first compound 15.81 µM) | relative viability ([2]; first compound 50 µM) | relative viability ([3]; first compound 0.08 µM) | relative viability ([3]; first compound 0.253 µM) | relative viability ([3]; first compound 0.8 µM) | relative viability ([3]; first compound 2.53 µM) | relative viability ([3]; first compound 8 µM) | relative viability ([4]; first compound 0.08 µM) | relative viability ([4]; first compound 0.253 µM) | relative viability ([4]; first compound 0.8 µM) | relative viability ([4]; first compound 2.53 µM) | relative viability ([4]; first compound 8 µM)
1 | NCI-H1437 | 0.311 | 0.29 | 0.303 | 0.314 | 0.27 | 0.851 | 0.693 | 0.713 | 0.727 | 0.17 | 0.264 | 0.34 | 0.312 | 0.295 | 0.313 | 1.12 | 1.15 | 1.11 | 1.15 | 1.07
2 | PC-14 | 0.524 | 0.606 | 0.518 | 0.571 | 0.0919 | 0.351 | 0.228 | 0.344 | 0.249 | 0.323 | 0.563 | 0.465 | – | 0.579 | 0.314 | 0.162 | 0.169 | – | 0.252 | 0.159
3 | NCI-H2228 | 0.671 | 0.878 | 0.728 | 0.622 | 0.59 | 1.11 | 0.598 | 1.17 | 0.943 | 0.938 | 0.345 | 0.389 | 0.351 | 0.321 | 0.277 | 0.133 | 0.149 | 0.162 | 0.145 | 0.146
4 | CAL-12T | 0.391 | 0.502 | 0.45 | 0.523 | 0.229 | 0.586 | 0.489 | 0.778 | 0.55 | 0.391 | 0.674 | 0.575 | 0.568 | 0.6 | 0.405 | 0.267 | 0.573 | 0.423 | 0.556 | 0.341
5 | LOU-NH91 | 0.513 | 0.582 | 0.512 | 0.539 | 0.537 | 0.688 | 0.754 | 0.626 | 0.625 | 0.64 | 0.736 | 0.565 | 0.768 | 0.761 | 0.76 | 0.351 | 0.405 | 0.374 | 0.377 | 0.385
6 | EMC-BAC-2 | 0.466 | 0.519 | 0.555 | 0.53 | 0.514 | 0.925 | 0.928 | 0.802 | 0.824 | 0.806 | 0.413 | 0.465 | 0.53 | 0.533 | 0.478 | 1.13 | 1.16 | 1.17 | 1.31 | 1.22
7 | NCI-H1355 | 0.396 | 0.402 | 0.405 | 0.406 | 0.388 | 0.946 | 0.875 | 0.944 | 0.916 | 0.919 | 0.446 | 0.444 | 0.437 | 0.465 | 0.404 | 0.744 | 0.721 | 0.724 | 0.767 | 0.766
8 | ABC-1 | 0.432 | 0.736 | 0.751 | 0.851 | 0.573 | 1.03 | 1.17 | 1.21 | 0.935 | 1.05 | 0.266 | 0.19 | 0.212 | 0.226 | 0.26 | 0.331 | 0.483 | 0.782 | 0.568 | 0.532
9 | NCI-H727 | 0.663 | 0.624 | 0.675 | 0.627 | 0.659 | 0.827 | – | 0.996 | 0.795 | 0.5 | 0.456 | 0.545 | 0.341 | 0.61 | 0.417 | 0.465 | 0.796 | 0.458 | 0.34 | 0.302
10 | NCI-H1666 | 0.586 | 0.659 | 0.672 | 0.663 | 0.656 | 0.576 | – | 0.7 | 0.567 | 0.382 | 0.592 | 0.574 | 0.53 | 0.608 | 0.528 | 1.08 | 1.04 | 1 | 1.04 | 0.763
11 | NCI-H2126 | 0.336 | 0.33 | 0.375 | 0.333 | 0.339 | 0.817 | 0.657 | 0.854 | 0.69 | 0.59 | 0.459 | 0.508 | 0.52 | 0.538 | 0.452 | 0.882 | 0.942 | 0.919 | 0.919 | 0.767
12 | NCI-H1793 | 0.269 | 0.292 | 0.311 | 0.374 | 0.321 | 0.71 | 0.557 | 0.621 | 0.404 | 0.234 | 0.473 | 0.286 | 0.339 | 0.35 | 0.213 | 0.208 | 0.173 | 0.202 | 0.145 | 0.178
13 | LCLC-97TM1 | 0.245 | 0.247 | 0.232 | 0.225 | 0.188 | – | – | 1.33 | 0.722 | 0.885 | 0.386 | 0.411 | 0.326 | 0.433 | 0.448 | 0.825 | 0.673 | 0.647 | 0.814 | 0.878
14 | COR-L23 | 0.244 | 0.351 | 0.328 | 0.321 | 0.278 | 0.881 | 0.917 | – | 0.927 | 0.615 | 0.401 | 0.44 | 0.416 | 0.526 | 0.336 | 0.618 | 0.693 | 0.624 | 0.69 | 0.611
15 | HARA | 0.274 | 0.239 | 0.266 | 0.241 | 0.243 | 0.729 | 0.706 | – | 0.699 | 0.554 | 0.384 | 0.415 | 0.436 | 0.41 | 0.404 | 0.895 | 0.823 | 0.711 | 0.816 | 0.512
16 | NCI-H2023 | 0.347 | 0.343 | 0.364 | 0.311 | 0.255 | 0.827 | 0.0641 | 0.727 | 0.641 | 0.474 | 0.403 | 0.428 | 0.349 | 0.38 | 0.217 | 0.657 | 0.774 | 0.78 | 0.593 | 0.153
